Format in all cases: functional
The subject of test [1] is Streptococcus pneumoniae. Kind of test: Minimum inhibitory concentration of compound against Ery-S Streptococcus pneumoniae ATCC 49619 was determined.
The test system of test [2] is Streptococcus pneumoniae. Kind of test: Minimum inhibitory concentration of compound against Ery-R Streptococcus pneumoniae 303 was determined.
Test [3] has as its system Streptococcus pneumoniae. Kind of test: Minimum inhibitory concentration of compound against Ery-R Streptococcus pneumoniae 163 was determined.
The test system of test [4] is Streptococcus pyogenes. The test is described as follows: Minimum inhibitory concentration of compound against Ery-S Streptococcus pyogenes ATCC 19615 was determined.
Test [5] has as its system Staphylococcus aureus. Kind of test: Minimum inhibitory concentration of compound against Ery-S Staphylococcus aureus ATCC 29213 was determined.
For test [6], the system named is Haemophilus influenzae. The test is described as follows: Minimum inhibitory concentration of compound against Ery-S Haemophilus influenzae ATCC 49247 was determined.
In test [7] the test system is Staphylococcus aureus. Kind of test: Minimum inhibitory concentration of compound against Ery-R Staphylococcus aureus 96:11480 was determined.
Test [8] relates to Streptococcus pyogenes. The test is described as follows: Minimum inhibitory concentration of compound against Ery-R Streptococcus pyogenes 3029 was determined.
Test [9] relates to Haemophilus influenzae. The test is described as follows: Minimum inhibitory concentration of compound against Haemophilus influenzae ATCC 49247 Ery-S was determined.
Test [10] relates to Streptococcus pyogenes. The test is described as follows: Minimum inhibitory concentration of compound against Streptococcus pyogenes ATCC 13029 Ery-R was determined.
Test [11] has as its system Streptococcus pneumoniae. The test is described as follows: Minimum inhibitory concentration of compound against Streptococcus pneumoniae ATCC 49163 Ery-R was determined.
Test [12] deals with Streptococcus pneumoniae. The test is described as follows: Minimum inhibitory concentration of compound against Streptococcus pneumoniae ATCC 49619 Ery-S was determined.
The test system of test [13] is Streptococcus pneumoniae. The test is described as follows: Minimum inhibitory concentration of compound against Streptococcus pneumoniae ATCC 49303 Ery-R was determined.
Test [14] has as its system Streptococcus pneumoniae. The test is described as follows: Minimum inhibitory concentration of compound against Ery-R Streptococcus pneumoniae 5032 was determined.
Test [15] relates to Streptococcus pneumoniae. The test is described as follows: Minimum inhibitory concentration of compound against Ery-S Streptococcus pneumoniae 3773 was determined.
The subject of test [16] is Streptococcus pyogenes. The test is described as follows: Minimum inhibitory concentration of compound against Ery-R Streptococcus pyogenes 3262 was determined.
For test [17], the system named is Staphylococcus aureus. Kind of test: Minimum inhibitory concentration of compound against Ery-S Staphylococcus aureus ATCC 23029 was determined.
For test [18], the system named is Streptococcus pyogenes. The test is described as follows: Minimum inhibitory concentration of compound against Ery-R Streptococcus pyogenes 13029 was determined.
For test [19], the system named is Streptococcus pyogenes. The test is described as follows: Minimum inhibitory concentration of compound against Ery-R Streptococcus pyogenes 1850 was determined.
In test [20] the test system is Streptococcus pyogenes. The test is described as follows: Minimum inhibitory concentration of compound against Ery-R Streptococcus pyogenes 1721 was determined.
Test [21] relates to Streptococcus pneumoniae. Kind of test: 1 Minimum inhibitory concentration of compound against Ery-R Streptococcus pneumoniae 163 was determined.

Structures are written as SMILES. ≈ marks a conversion by molar mass, not a printed value.

Consider `CC[C@H]1OC(=O)[C@H](C)C(=O)[C@H](C)[C@@H](O[C@@H]2O[C@H](C)[C@@H](O)[C@H](N(C)C)[C@H]2O)[C@@](C)(OC)C[C@@H](C)C(=O)[C@H](C)[C@H]2N(CCCCn3cc(-c4ccccn4)nn3)C(=O)O[C@]12C`, for which the MIC is not above 0.125 mg/L in the test on Streptococcus pneumoniae [1]; 16 mg/L (≈ 19.3 µM) with Streptococcus pneumoniae [2]; 0.5 mg/L (≈ 0.603 µM) against Streptococcus pneumoniae [3]; not above 0.125 mg/L in the test on Streptococcus pyogenes [4]; not above 0.125 mg/L in the test on Staphylococcus aureus [5]; 16 mg/L (≈ 19.3 µM) against Haemophilus influenzae [6]. Moreover, the MIC against Staphylococcus aureus [7] is 0.25 mg/L (≈ 0.302 µM); in the test on Streptococcus pyogenes [8], more than 64 mg/L.

For `CC[C@H]1OC(=O)[C@H](C)C(=O)[C@H](C)[C@@H](O[C@@H]2O[C@H](C)C[C@H](N(C)C)[C@H]2O)[C@@](C)(OC)C[C@@H](C)C(=O)[C@H](C)[C@H]2N(CCCCn3cc(-c4ccccn4)nn3)C(=O)O[C@]12C`, the MIC against Streptococcus pneumoniae [1] is not above 0.125 mg/L; against Streptococcus pneumoniae [2] it was not above 0.125 mg/L; against Streptococcus pneumoniae [3], not above 0.125 mg/L; in the test on Streptococcus pyogenes [4], not above 0.125 mg/L; against Staphylococcus aureus [5], not above 0.125 mg/L; against Haemophilus influenzae [6] it was 4 mg/L (≈ 4.92 µM). Also, the MIC in the test on Staphylococcus aureus [7] is 0.125 mg/L (≈ 0.154 µM); with Streptococcus pyogenes [8] it was more than 64 mg/L.

As for `CC[C@H]1OC(=O)[C@H](C)C(=O)[C@H](C)[C@@H](O[C@@H]2O[C@H](COCc3ccccc3)C[C@H](N(C)C)[C@H]2O)[C@@](C)(OC)C[C@@H](C)C(=O)[C@H](C)[C@H]2N(CCCCn3cc(-c4ccccn4)nn3)C(=O)O[C@]12C`, the MIC against Haemophilus influenzae [9] is 64 mg/L (≈ 69.6 µM); against Streptococcus pyogenes [10], 0.5 mg/L (≈ 0.544 µM); against Streptococcus pneumoniae [11], not above 0.125 mg/L; against Streptococcus pneumoniae [12] it was not above 0.125 mg/L; against Streptococcus pneumoniae [13], not above 0.125 mg/L.

For the molecule `CC[C@H]1OC(=O)[C@H](C)C(=O)[C@H](C)[C@@H](O[C@@H]2OC[C@@H](O)[C@H](N(C)C)[C@H]2O)[C@@](C)(OC)C[C@@H](C)C(=O)[C@H](C)[C@H]2N(CCCCn3cc(-c4ccccn4)nn3)C(=O)O[C@]12C`, the MIC against Streptococcus pneumoniae [1] is 4 mg/L (≈ 4.91 µM); with Streptococcus pneumoniae [2] it was 16 mg/L (≈ 19.6 µM); in the test with Streptococcus pneumoniae [3] it was 2 mg/L (≈ 2.45 µM); in the test on Streptococcus pyogenes [4] it was not above 0.125 mg/L; in the test with Staphylococcus aureus [5] it was 4 mg/L (≈ 4.91 µM); against Haemophilus influenzae [6], more than 64 mg/L. Also, the MIC in the test with Staphylococcus aureus [7] stood at 4 mg/L (≈ 4.91 µM).

With `CC[C@H]1OC(=O)[C@H](C)[C@@H](O[C@H]2C[C@@](C)(OC)[C@@H](O)[C@H](C)O2)[C@H](C)[C@@H](O[C@@H]2O[C@H](C)C[C@H](N(C)C)[C@H]2O)[C@](C)(O)C[C@@H](C)CN(C)[C@H](C)[C@@H](O)[C@]1(C)O` [AZITHROMYCIN], the MIC is not above 0.125 mg/L in the test with Streptococcus pneumoniae [1]; more than 64 mg/L in the test with Streptococcus pneumoniae [2]; more than 64 mg/L in the test with Streptococcus pneumoniae [14]; more than 64 mg/L against Streptococcus pneumoniae [15]; more than 64 mg/L against Streptococcus pyogenes [16]; 8 mg/L (≈ 10.7 µM) against Streptococcus pneumoniae [3]. For the same molecule, the MIC was not above 0.125 mg/L against Streptococcus pyogenes [4]; 1 mg/L (≈ 1.34 µM) against Staphylococcus aureus [17]; 4 mg/L (≈ 5.34 µM) in the test with Haemophilus influenzae [6]; more than 64 mg/L in the test on Streptococcus pyogenes [18]; not below 64 mg/L in the test on Staphylococcus aureus [7]; more than 64 mg/L against Streptococcus pyogenes [19]. The MIC in the test with Streptococcus pyogenes [20] was more than 64 mg/L.

As for `CC[C@H]1OC(=O)[C@H](C)C(=O)[C@H](C)[C@@H](O[C@@H]2O[C@H](CO)[C@@H](O)[C@H](N(C)C)[C@H]2O)[C@@](C)(OC)C[C@@H](C)C(=O)[C@H](C)[C@H]2N(CCCCn3cc(-c4ccccn4)nn3)C(=O)O[C@]12C`, the MIC in the test with Streptococcus pneumoniae [1] was not above 0.125 mg/L; against Streptococcus pneumoniae [2], not above 0.125 mg/L; in the test on Streptococcus pneumoniae [21] it was 4 mg/L (≈ 4.73 µM); against Streptococcus pyogenes [4], not above 0.125 mg/L; in the test with Staphylococcus aureus [5] it was 4 mg/L (≈ 4.73 µM); in the test on Haemophilus influenzae [6], 64 mg/L (≈ 75.7 µM). In addition, the MIC was 64 mg/L (≈ 75.7 µM) in the test with Staphylococcus aureus [7] and more than 64 mg/L against Streptococcus pyogenes [8].
